The structures appear in SMILES notation.

The target of the assay is Intestinal-type alkaline phosphatase (Mus musculus, UniProt P24822). Nature of the assay: PubChem AID 488785.
Intestinal-type alkaline phosphatase, sequence (P24822 whole entry, looked up): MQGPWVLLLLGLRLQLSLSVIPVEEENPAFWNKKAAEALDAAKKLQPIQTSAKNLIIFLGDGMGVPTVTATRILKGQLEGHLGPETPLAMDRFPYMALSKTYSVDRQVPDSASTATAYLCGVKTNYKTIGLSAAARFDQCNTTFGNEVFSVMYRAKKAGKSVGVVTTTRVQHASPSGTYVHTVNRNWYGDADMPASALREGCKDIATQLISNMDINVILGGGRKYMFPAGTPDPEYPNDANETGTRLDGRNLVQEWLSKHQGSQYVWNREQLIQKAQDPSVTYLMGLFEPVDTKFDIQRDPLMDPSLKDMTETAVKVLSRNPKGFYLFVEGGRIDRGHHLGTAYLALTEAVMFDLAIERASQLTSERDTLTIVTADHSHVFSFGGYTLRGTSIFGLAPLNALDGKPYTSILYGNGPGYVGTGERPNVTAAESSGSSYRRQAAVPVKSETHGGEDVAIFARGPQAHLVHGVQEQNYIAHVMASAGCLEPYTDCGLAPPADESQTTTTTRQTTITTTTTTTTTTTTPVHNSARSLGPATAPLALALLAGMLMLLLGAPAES
The molecule `C#CCOCCOCCOCCNc1nc(N2CCN(C(=O)CCCCCCCCCCNC(=O)Cn3cc(CCCCCN)nn3)CC2)nc(N2CCN(C(=O)CCCCCCCCCCNC(=O)Cn3cc(C[C@@H](C)O)nn3)CC2)n1` [KG-TG] gave a half-inhibitory concentration (IC50) of 6.31 µM.

`Cc1ccc(/C=C2\SC(=S)N(/N=C/C3C=C([N+](=O)[O-])C=CC3=O)C2=O)o1` (stereo unspecified) [(5Z)-5-[(5-methylfuran-2-yl)methylidene]-3-[[(E)-(3-nitro-6-oxocyclohexa-2,4-dien-1-ylidene)methyl]amino]-2-sulfanylidene-1,3-thiazolidin-4-one] displayed an IC50 of 61.9 µM.

Regarding `C#CCOCCOCCOCCNc1nc(N2CCN(C(=O)CCCCCCCCCCNC(=O)[C@@H](CCC(=O)O)n3cc(CCCCCN)nn3)CC2)nc(N2CCN(C(=O)CCCCCCCCCCNC(=O)[C@H]([C@@H](C)CC)n3cc(CCCCCN)nn3)CC2)n1` [KI-KE], half-maximal inhibition (IC50) was put at 17.1 µM.

With `C#CCOCCOCCOCCNc1nc(N2CCN(C(=O)CCCCCCCCCCNC(=O)[C@@H](CCSC)n3cc(CCO)nn3)CC2)nc(N2CCN(C(=O)CCCCCCCCCCNC(=O)[C@H]([C@@H](C)CC)n3cc(CCCCCN)nn3)CC2)n1` [MLS002153719], inhibition was half-maximal at 5.89 µM (IC50).

`Cc1ccc(Cl)c2c1NC(=O)/C2=C1/NC(=S)NC1=O` had a half-inhibitory concentration (IC50) of 0.206 µM.

With `CC1NON=C1C(=O)NN=CC1=CC(=O)C(=O)C=C1` (stereo unspecified) [4-Methyl-furazan-3-carboxylic acid (3,4-dihydroxy-benzylidene)-hydrazide], the IC50 was determined as 9.92 µM.

With `O=C(Nn1c(O)csc1=S)C(=O)Nn1c(O)csc1=S` [SMR000349781], the IC50 is 7.75 µM.

For `COc1cc(C=CC(=O)CC(=O)C=Cc2ccc(O)cc2)ccc1O` [demethoxycurcumin], the IC50 was 8.38 µM.

In turn, `C#CCOCCOCCOCCNc1nc(N2CCN(C(=O)CCCCCCCCCCNC(=O)[C@H]([C@@H](C)CC)n3cc(CCCCN=C(N)N)nn3)CC2)nc(N2CCN(C(=O)CCCCCCCCCCNC(=O)[C@@H]([C@H](C)O)n3cc(C)nn3)CC2)n1` [GT-RI] came in with an IC50 of 0.366 µM.

`O=C1C=CC(/C=C/c2nc(O)c([N+](=O)[O-])c(=O)[nH]2)C=C1O` (stereo unspecified) [SMR000524347]: the IC50 was 1.04 µM.

`Oc1ccc(CN=Nc2cc(N3CCCC3)nc(N3CCCC3)n2)cc1O` [(4Z)-4-[[2-(2,6-dipyrrolidin-1-ylpyrimidin-4-yl)hydrazinyl]methylidene]-2-hydroxycyclohexa-2,5-dien-1-one] returned an IC50 of 1.51 µM.

The molecule `Nc1nnc(CC(=O)N/N=C/C2C=C([N+](=O)[O-])C=C(Br)C2=O)s1` (stereo unspecified) [2-(5-azanyl-1,3,4-thiadiazol-2-yl)-N'-[(E)-(5-bromanyl-3-nitro-6-oxidanylidene-cyclohexa-2,4-dien-1-ylidene)methyl]ethanehydrazide] registered an IC50 of 2.79 µM.

Molecule `NS(=O)(=O)c1cc(C(=O)NNC2=c3ccccc3=NC2=O)ccc1Cl` [2-chloro-5-[[(2-oxoindol-3-yl)amino]carbamoyl]benzenesulfonamide] registered an IC50 of 42.4 µM.

`COc1cc(C=Nn2c(O)csc2=S)ccc1O` [3-[[(E)-(3-methoxy-4-oxidanylidene-cyclohexa-2,5-dien-1-ylidene)methyl]amino]-2-sulfanylidene-1,3-thiazolidin-4-one] showed an IC50 of 2.2 µM.

`O=C1C=CC(C=NNC(=S)Nc2ccccc2[N+](=O)[O-])C=C1O` (stereo unspecified) [MLS000417596] displayed an IC50 of 0.216 µM.

As for `Oc1ccc(C=Nn2c(O)csc2=S)c(O)c1O` [3-[[(E)-[2,3-bis(oxidanyl)-4-oxidanylidene-cyclohexa-2,5-dien-1-ylidene]methyl]amino]-2-sulfanylidene-1,3-thiazolidin-4-one], the IC50 stood at 4.15 µM.

In general, IC50 refers to the midpoint of a concentration-inhibition curve. A higher IC50 goes with weaker potency in that assay.

Source of the values: BindingDB's records for doi:10.7270/Q2DB809V (Burnham Center For Chemical Genomics, 2010).
